Reference: patent US6503922B2, “Bridged nicotine compounds for use in the treatment of CNS pathologies” (priority 2000, dated 2003)
Like-named read-outs stand apart in the source and are kept apart here.

What was measured:
[1] = target: T1, α4β2-containing receptor subtype (Rattus norvegicus, UniProt P09483+P12390); assay: [3H]-NIC binding assay, rat striatal membranes; details: compared with NONI, NDNI, DHβE
T1 construct: Striata from two rats were dissected, pooled, and homogenized; from tissue; host or cells: rat striatal membranes
T1 sequence (P09483 31-630): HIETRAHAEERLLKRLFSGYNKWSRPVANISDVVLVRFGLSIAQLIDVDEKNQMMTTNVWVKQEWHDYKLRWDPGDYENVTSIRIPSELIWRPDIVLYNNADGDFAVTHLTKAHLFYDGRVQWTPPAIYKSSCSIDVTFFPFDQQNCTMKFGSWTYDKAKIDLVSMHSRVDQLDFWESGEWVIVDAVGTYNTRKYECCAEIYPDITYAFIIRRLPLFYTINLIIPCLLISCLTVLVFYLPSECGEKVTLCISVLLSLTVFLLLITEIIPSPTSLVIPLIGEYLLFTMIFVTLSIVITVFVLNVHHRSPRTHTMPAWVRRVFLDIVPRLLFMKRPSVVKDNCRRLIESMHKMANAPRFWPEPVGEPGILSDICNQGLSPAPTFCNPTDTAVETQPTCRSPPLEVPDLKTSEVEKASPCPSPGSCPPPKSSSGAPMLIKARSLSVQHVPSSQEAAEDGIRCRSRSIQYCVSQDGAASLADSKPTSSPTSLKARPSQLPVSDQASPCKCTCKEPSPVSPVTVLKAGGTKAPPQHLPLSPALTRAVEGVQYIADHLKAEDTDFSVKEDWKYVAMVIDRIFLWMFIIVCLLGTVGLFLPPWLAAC
T1 sequence (P12390 25-500): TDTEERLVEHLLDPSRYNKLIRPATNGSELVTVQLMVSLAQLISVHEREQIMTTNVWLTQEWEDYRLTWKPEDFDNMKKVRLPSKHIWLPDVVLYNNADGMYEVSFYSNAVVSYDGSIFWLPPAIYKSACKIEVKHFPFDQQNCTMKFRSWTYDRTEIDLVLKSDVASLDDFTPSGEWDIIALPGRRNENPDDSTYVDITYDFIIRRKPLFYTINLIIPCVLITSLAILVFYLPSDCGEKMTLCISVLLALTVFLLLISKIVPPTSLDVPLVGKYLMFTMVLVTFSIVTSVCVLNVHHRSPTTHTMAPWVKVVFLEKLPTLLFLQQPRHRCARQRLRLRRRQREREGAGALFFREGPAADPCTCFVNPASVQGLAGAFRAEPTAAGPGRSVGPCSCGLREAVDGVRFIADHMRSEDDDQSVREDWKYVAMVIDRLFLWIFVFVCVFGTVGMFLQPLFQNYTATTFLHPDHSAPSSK
Method: Striata from two rats were dissected, pooled, and homogenized with a Tekmar polytron in 10 vol of ice-cold modified Krebs-HEPES buffer (20 mM HEPES, 118 mM NaCl, 4.8 mM KCl, 2.5 mM CaCl2, 1.2 mM MgSO4, adjusted to pH 7.5). The homogenates were incubated at 37° C. for 5 minutes and centrifuged at 15,000 g for 20 minutes. The pellet was resuspended in 10 volumes of ice-cold MilliQ water, incubated for 5 minutes at 37° C., and centrifuged at 15,000 g for 20 minutes. The second pellet was then resuspended in 10 volumes of fresh ice-cold 10% Krebs-HEPES buffer, incubated at 37° C., and centrifuged at 15,000 g for 20 minutes. The latter sequence of resuspension, incubation, and centrifugation was repeated. The pellet was frozen under fresh 10% Krebs-HEPES buffer and stored at −40° C. until assayed. Upon assay, the pellet was resuspended in the Krebs-HEPES buffer, incubated at 37° C. for 5 minutes, and centrifuged at 15,000 g for 20 minutes. The final pellet was resuspended in 3.6 ml ice-cold MilliQ water which provided for approximately 200 μg protein per 100 μl aliquot. Competition assays were performed in triplicate in a final volume of 200 μl Krebs-HEPES buffer containing […] Tris buffer (pH 7.5 at 4° C.). Reactions were initiated by addition of 100 μl of membrane suspension to […] [^3H]-NIC (50 μl). and one of at least nine concentrations of analog (50 μl). After a 90 minutes incubation at […], reactions were terminated by dilution of the samples with 3 ml of ice-cold Krebs-HEPES buffer followed immediately by filtration through Whatman GF/B. glass fiber filters (presoaked in 0.5% polyethyleneimine) using a Brandel Cell Harvester. Filters were rinsed three times with. 3 ml of ice-cold Krebs-HEPES buffer, transferred to scintillation vials, and 5 ml scintillation cocktail (Research Products International Corp., Mt. Prospect, Ill.) added. Nonspecific binding determined in triplicate was defined as binding in the presence of 10 μM NIC. Binding parameters were determined using the weighted, least squares regression.
The conformationally restricted nicotine analogs were evaluated for their ability to displace [^3H]-NIC binding from rat striatal membranes.

[2] = target: T1, α4β2-containing receptor subtype; assay: [3H]-NIC binding assay, rat striatal membranes; details: for Specific binding of [3H]-NIC in the presence of compound: 3 nM [3H]-NIC, mean ± S.E.M of 3 experiments
[3] = target: T2, α7-type neuronal nicotinic acetylcholine receptors (Rattus norvegicus, UniProt Q05941); assay: [3H]-MLA binding assay, rat brain membranes; details: for remaining activity at 10 µM: compound 10 μM, 2.5 nM [3H]-MLA, whole brain binding relative to control
T2 construct: The brain tissue was homogenized with a Tekmar Polytron; from tissue; host or cells: male Sprague-Dawley rat brain membranes (whole brain without cortex, striatum and cerebellum)
T2 sequence (Q05941 23-502): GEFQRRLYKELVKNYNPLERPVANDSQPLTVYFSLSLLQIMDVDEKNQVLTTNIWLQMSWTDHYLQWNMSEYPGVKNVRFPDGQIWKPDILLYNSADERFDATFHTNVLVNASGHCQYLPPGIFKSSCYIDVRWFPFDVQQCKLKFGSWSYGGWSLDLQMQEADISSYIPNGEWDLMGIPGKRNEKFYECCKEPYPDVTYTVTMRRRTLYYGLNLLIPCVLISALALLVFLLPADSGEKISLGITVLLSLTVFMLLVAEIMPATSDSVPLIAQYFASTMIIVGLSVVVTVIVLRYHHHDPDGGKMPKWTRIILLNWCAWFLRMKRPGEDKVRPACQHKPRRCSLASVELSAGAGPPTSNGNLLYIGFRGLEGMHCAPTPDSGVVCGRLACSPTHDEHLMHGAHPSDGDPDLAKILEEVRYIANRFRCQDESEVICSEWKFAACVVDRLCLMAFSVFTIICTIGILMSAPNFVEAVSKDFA

CCCCCCCCCC[n+]1cccc2c1CCC1CCN(C)C21 (stereo not shown) [BCD]
Affinity for the [3H]-NIC binding site (in words) [1]: lost their ability to interact with this binding site
Specific binding of [3H]-NIC in the presence of compound ([2]; compound 1 μM): 54.9 ± 0.7 fmol/mg of protein
Specific binding of [3H]-NIC in the presence of compound ([2]; compound 10 μM): 54.4 ± 1.1 fmol/mg of protein
Specific binding of [3H]-NIC in the presence of compound ([2]; compound 100 μM): 47.9 ± 2.8 fmol/mg of protein
remaining activity at 10 µM [3]: 96.2%

CCCCCCCCCCC[n+]1cccc2c1CCC1CCN(C)C21 (stereo not shown) [BCU]
Specific binding of [3H]-NIC in the presence of compound ([2]; compound 1 μM): 56.1 ± 0.6 fmol/mg of protein
Specific binding of [3H]-NIC in the presence of compound ([2]; compound 10 μM): 53.9 ± 1.2 fmol/mg of protein
Specific binding of [3H]-NIC in the presence of compound ([2]; compound 100 μM): 37.3 ± 1.8 fmol/mg of protein
remaining activity at 10 µM [3]: 92.3%

CCCCCCCCCCC[n+]1ccc2c(c1)[C@@H]1[C@H](CC2)CCN1C.[I-] (relative stereo) [ACU, cis-1-methyl-8-undecyl-2,3,3a,4,5,9b-hexahydro-1H-pyrrolo[3,2-h]isoquinolin-8-ium iodide]
Specific binding of [3H]-NIC in the presence of compound ([2]; compound 1 μM): 51.3 ± 2.0 fmol/mg of protein
Specific binding of [3H]-NIC in the presence of compound ([2]; compound 10 μM): 49.0 ± 0.3 fmol/mg of protein
Specific binding of [3H]-NIC in the presence of compound ([2]; compound 100 μM): 42.7 ± 2.1 fmol/mg of protein
remaining activity at 10 µM [3]: 100%

CCCCCCCCCCCC[n+]1ccc2c(c1)[C@@H]1[C@H](CC2)CCN1C.[I-] (relative stereo) [ACDD, cis-8-dodecyl-1-methyl-2,3,3a,4,5,9b-hexahydro-1H-pyrrolo[3,2-h]isoquinolin-8-ium iodide]
Specific binding of [3H]-NIC in the presence of compound ([2]; compound 1 μM): 49.5 ± 0.7 fmol/mg of protein
Specific binding of [3H]-NIC in the presence of compound ([2]; compound 10 μM): 49.8 ± 2.9 fmol/mg of protein
Specific binding of [3H]-NIC in the presence of compound ([2]; compound 100 μM): 44.5 ± 1.7 fmol/mg of protein
remaining activity at 10 µM [3]: 102%

CCCCCCCC[n+]1ccc2c(c1)[C@@H]1[C@H](CC2)CCN1C.[I-] (relative stereo) [ACO, cis-1-methyl-8-octyl-2,3,3a,4,5,9b-hexahydro-1H-pyrrolo[3,2-h]isoquinolin-8-ium iodide]
Affinity for the [3H]-NIC binding site (in words) [1]: much lower affinity for the [^3H]-NIC binding site compared to NONI
Specific binding of [3H]-NIC in the presence of compound ([2]; compound 1 μM): 44.5 ± 0.4 fmol/mg of protein
Specific binding of [3H]-NIC in the presence of compound ([2]; compound 10 μM): 42.2 ± 0.5 fmol/mg of protein
Specific binding of [3H]-NIC in the presence of compound ([2]; compound 100 μM): 30.2 ± 6.9 fmol/mg of protein
remaining activity at 10 µM [3]: 91.5%

CCCCCCCCCCCC[n+]1cccc2c1CCC1CCN(C)C21 (stereo not drawn) [BCDD, cis-6-dodecyl-1-methyl-2,3,3a,4,5,9b-hexahydro-1H-pyrrolo[2,3-f]isoquinolin-6-ium iodide]
Specific binding of [3H]-NIC in the presence of compound ([2]; compound 1 μM): 43.7 ± 4.5 fmol/mg of protein
Specific binding of [3H]-NIC in the presence of compound ([2]; compound 10 μM): 43.0 ± 4.7 fmol/mg of protein
Specific binding of [3H]-NIC in the presence of compound ([2]; compound 100 μM): 34.0 ± 2.1 fmol/mg of protein
remaining activity at 10 µM [3]: 94.2%

CCCCCCCC[n+]1cccc2c1CCC1CCN(C)C21 (stereo not shown) [BCO]
Affinity for the [3H]-NIC binding site (in words) [1]: much lower affinity for the [^3H]-NIC binding site compared to NONI
Specific binding of [3H]-NIC in the presence of compound ([2]; compound 1 μM): 50.5 ± 1.2 fmol/mg of protein
Specific binding of [3H]-NIC in the presence of compound ([2]; compound 10 μM): 39.7 ± 1.4 fmol/mg of protein
Specific binding of [3H]-NIC in the presence of compound ([2]; compound 100 μM): 13.5 ± 0.5 fmol/mg of protein
remaining activity at 10 µM [3]: 93.6%

CCCCCCCCCC[n+]1cccc([C@@H]2CCCN2C)c1.[I-] [NDNI, reference compound]
Affinity for the [3H]-NIC binding site (in words) [2]: high affinity

CCCCCCCCC[n+]1cccc2c1CCC1CCN(C)C21 (stereo not drawn) [BCN, cis-1-methyl-6-nonyl-2,3,3a,4,5,9b-hexahydro-1H-pyrrolo[2,3-f]isoquinolin-6-ium iodide]
Specific binding of [3H]-NIC in the presence of compound ([2]; compound 1 μM): 49.6 ± 1.2 fmol/mg of protein
Specific binding of [3H]-NIC in the presence of compound ([2]; compound 10 μM): 47.7 ± 2.1 fmol/mg of protein
Specific binding of [3H]-NIC in the presence of compound ([2]; compound 100 μM): 36.2 ± 0.3 fmol/mg of protein
remaining activity at 10 µM [3]: 94%

CCCCCCCCC[n+]1ccc2c(c1)[C@@H]1[C@H](CC2)CCN1C.[I-] (relative stereo) [ACN, cis-1-methyl-8-nonyl-2,3,3a,4,5,9b-hexahydro-1H-pyrrolo[3,2-h]isoquinolin-8-ium iodide]
Specific binding of [3H]-NIC in the presence of compound ([2]; compound 1 μM): 49.8 ± 3.6 fmol/mg of protein
Specific binding of [3H]-NIC in the presence of compound ([2]; compound 10 μM): 48.9 ± 2.9 fmol/mg of protein
Specific binding of [3H]-NIC in the presence of compound ([2]; compound 100 μM): 30.2 ± 2.2 fmol/mg of protein
remaining activity at 10 µM [3]: 101%

α-Bungarotoxin [reference compound]
Ki [3]: 28.6 ± 5.4 nM

CCCCCCCCCC[n+]1ccc2c(c1)[C@@H]1[C@H](CC2)CCN1C.[I-] (relative stereo) [ACD, cis-8-decyl-1-methyl-2,3,3a,4,5,9b-hexahydro-1H-pyrrolo[3,2-h]isoquinolin-8-ium iodide]
Affinity for the [3H]-NIC binding site (in words) [1]: lost their ability to interact with this binding site
Specific binding of [3H]-NIC in the presence of compound ([2]; compound 1 μM): 50.3 ± 3.7 fmol/mg of protein
Specific binding of [3H]-NIC in the presence of compound ([2]; compound 10 μM): 52.1 ± 2.6 fmol/mg of protein
Specific binding of [3H]-NIC in the presence of compound ([2]; compound 100 μM): 37.0 ± 1.7 fmol/mg of protein
remaining activity at 10 µM [3]: 102%
